Assay results as given in patent US8962660B2 (Bristol-Myers Squibb Company, priority 2013, dated 2015).

Target: T1, human GPR120 (Homo sapiens, UniProt Q5NUL3)
T1 construct: expressed in transfected cells; host or cells: CHOA12 cells
T1 sequence (Q5NUL3 1-361): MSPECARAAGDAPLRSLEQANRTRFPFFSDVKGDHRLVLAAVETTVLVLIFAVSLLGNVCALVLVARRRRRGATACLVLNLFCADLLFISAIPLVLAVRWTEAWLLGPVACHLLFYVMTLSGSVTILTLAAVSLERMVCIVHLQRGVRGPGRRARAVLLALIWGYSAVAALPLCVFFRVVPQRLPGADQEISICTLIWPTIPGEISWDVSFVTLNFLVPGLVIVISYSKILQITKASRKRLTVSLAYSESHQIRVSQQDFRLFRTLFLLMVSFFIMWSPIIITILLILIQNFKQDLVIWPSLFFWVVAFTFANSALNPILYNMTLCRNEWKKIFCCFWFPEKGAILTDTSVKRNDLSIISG
Assay: GPR120 pERK AlphaScreen SureFire assay (human)
Format: cell-based
Conditions: CHO cells stably transfected with short form of human GPR120
Outline: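 CHOA12 cells stably expressing short-form human GPR120, serum-starved 2 h, were stimulated 7 min at 37 °C with compound (33.33 μM–0.56 nM, 11-point). pERK read by AlphaScreen SureFire; activation normalized to 50 μM linolenic acid and DMSO blank, EC50 by 4-parameter fit.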

| Structure (SMILES) | EC50 [nM] |
| --- | --- |
| O=C(O)COCCC12CCC(c3ccc(F)c(Oc4ccccc4)c3)(CC1)OC2 [Example 87, 2-(2-(1-(4-fluoro-3-phenoxyphenyl)-2-oxabicyclo[2.2.2]octan-4-yl)ethoxy)acetic acid] | 410 |
| O=C(O)C1CC1COC12CCC(c3cccc(Oc4ccccc4)c3)(CC1)OC2 (stereo not drawn) [Example 96, 2-(((1-(3-Phenoxyphenyl)-2-oxabicyclo[2.2.2]octan-4-yl)oxy)methyl) cyclopropanecarboxylic acid] | 1680 |
| O=C(O)C1CC1COCC12CCC(c3cccc(Oc4ccccc4)c3)(CC1)OC2 (stereo not drawn) [Example 97, Trans-2-(((1-(3-phenoxyphenyl)-2-oxabicyclo[2.2.2]octan-4-yl)methoxy)methyl) cyclopropane carboxylic acid] | 390 |
| COc1ccc(Oc2cccc(C34CCC(CCOCC(=O)O)(CC3)OC4)c2)cc1F [Example 100, 2-(2-(4-(3-(3-Fluoro-4-methoxyphenoxy)phenyl)-2-oxabicyclo[2.2.2]octan-1-yl)ethoxy) acetic acid] | 550 |
| Cc1ccc(Oc2cccc(C34CCC(CCOCC(=O)O)(CC3)OC4)c2)cc1F [Example 101] | 320 |
| COc1cccc(Oc2cccc(C34CCC(CCOCC(=O)O)(CC3)OC4)c2)c1 [Example 102] | 660 |
| Cc1cc(Oc2cccc(C34CCC(CCOCC(=O)O)(CC3)OC4)c2)ccc1F [Example 103] | 540 |
| O=C(O)COCCC12CCC(c3cccc(Oc4cccnc4)c3)(CC1)CO2 [Example 104] | 7780 |
| O=C(O)COCCC12CCC(c3cccc(Oc4ccc(F)cc4)c3)(CC1)CO2 [Example 105] | 3440 |
| Cc1ccc(Oc2cccc(C34CCC(CCOCC(=O)O)(CC3)OC4)c2)cc1 [Example 106] | 580 |
| N#Cc1cccc(Oc2cccc(C34CCC(CCOCC(=O)O)(CC3)OC4)c2)c1 [Example 107] | 1870 |
| Cc1ccc(Oc2cc(F)cc(C34CCC(CCOCC(=O)O)(CC3)OC4)c2)cc1F [Example 108, 2-(2-(4-(3-Fluoro-5-(3-fluoro-4-methylphenoxy)phenyl)-2-oxabicyclo[2.2.2]octan-1-yl)ethoxy)acetic acid] | 730 |
| O=C(O)COCCC12CCC(c3cccc(Oc4ccccn4)c3)(CC1)CO2 [Example 109, 2-(2-(4-(3-(Pyridin-2-yloxy)phenyl)-2-oxabicyclo[2.2.2]octan-1-yl)ethoxy)acetic acid] | 5550 |
| O=C(O)COCCCC12CCC(c3cccc(Oc4ccccc4)c3)(CC1)CO2 [Example 110, 2-(3-(4-(3-Phenoxyphenyl)-2-oxabicyclo[2.2.2]octan-1-yl)propoxy)acetic acid] | 490 |
| O=C(O)COCCC12CCC(c3cccc(OC4CCCCC4)c3)(CC1)CO2 [Example 111, 2-(2-(4-(3-(Cyclohexyloxy)phenyl)-2-oxabicyclo[2.2.2]octan-1-yl)ethoxy) acetic acid] | 640 |
| Cc1ccc(Oc2cc(C34CCC(CCOCC(=O)O)(CC3)OC4)ccc2F)cc1F [Example 112] | 270 |
| Cc1ccc(Oc2cc(C34CCC(CCOCC(=O)O)(CC3)OC4)ccc2F)cc1C [Example 113] | 860 |
| Cc1cc(Oc2cc(C34CCC(CCOCC(=O)O)(CC3)OC4)ccc2F)ccc1C#N [Example 114] | 2730 |
| Cc1ccc(Oc2cccc(C34CCC(CCOCC(=O)O)(CC3)CO4)c2)cn1 [Example 115, 2-(2-(1-(3-(6-methylpyridin-3-yloxy)phenyl)-2-oxabicyclo[2.2.2]octan-4-yl)ethoxy)acetic acid] | 5560 |
| O=C(O)COCCC12CCC(c3cccc(Oc4cccc(O)c4)c3)(CC1)OC2 [Example 117, 2-(2-(1-(3-(3-Hydroxyphenoxy)phenyl)-2-oxabicyclo[2.2.2]octan-4-yl)ethoxy)acetic acid] | 5210 |
| CCc1cccc(Oc2cccc(C34CCC(CC[C@@H]5C[C@H]5C(=O)O)(CC3)CO4)c2)c1 [Example 118, (1R,2R)-2-(2-(1-(3-(3-Ethylphenoxy)phenyl)-2-oxabicyclo[2.2.2]octan-4-yl)ethyl)cyclo-propane carboxylic acid] | 1890 |
| CCc1cccc(Oc2cccc(C34CCC(CCOCC(=O)O)(CC3)CO4)c2)c1 [Example 119, 2-(2-(1-(3-(3-Ethylphenoxy)phenyl)-2-oxabicyclo[2.2.2]octan-4-yl)ethoxy)acetic acid] | 1600 |

The next lines start with the values.

| EC50 [nM] | Structure (SMILES) |
| --- | --- |
| 310 | O=C(O)COCCC12CCC(c3cc(F)cc(Oc4ccc(F)cc4)c3)(CC1)OC2 [Example 85, 2-(2-(1-(3-fluoro-5-(4-fluorophenoxy)phenyl)-2-oxabicyclo[2.2.2]octan-4-yl)ethoxy)acetic acid] |
| 850 | COc1cc(Oc2cc(F)cc(C34CCC(CCOCC(=O)O)(CC3)CO4)c2)ccc1F [Example 86, 2-(2-(1-(3-fluoro-5-(4-fluoro-3-methoxyphenoxy)phenyl)-2-oxabicyclo [2.2.2]octan-4-yl)ethoxy) acetic acid] |
| 340 | O=C(O)COCCC12CCC(c3ccc(F)c(Oc4ccc(F)cc4)c3)(CC1)OC2 [Example 88, 2-(2-(1-(4-fluoro-3-(4-fluorophenoxy)phenyl)-2-oxabicyclo[2.2.2]octan-4-yl)ethoxy)acetic acid] |
| 350 | Cc1ccc(Oc2cc(C34CCC(CCOCC(=O)O)(CC3)CO4)ccc2F)cc1F [Example 89, 2-(2-(1-(4-fluoro-3-(3-fluoro-4-methylphenoxy)phenyl)-2-oxabicyclo [2.2.2]octan-4-yl)ethoxy) acetic acid] |
| 950 | COc1cc(Oc2ccccc2)cc(C23CCC(CCOCC(=O)O)(CC2)CO3)c1 [Example 90, 2-(2-(1-(3-methoxy-5-phenoxyphenyl)-2-oxabicyclo[2.2.2]octan-4-yl)ethoxy)acetic acid] |
| 630 | COc1cc(Oc2ccc(F)c(F)c2)cc(C23CCC(CCOCC(=O)O)(CC2)CO3)c1 [Example 91, 2-(2-(1-(3-(3,4-difluorophenoxy)-5-methoxyphenyl)-2-oxabicyclo[2.2.2]octan-4-yl)ethoxy)acetic acid] |
| 800 | COc1cc(Oc2ccc(F)cc2)cc(C23CCC(CCOCC(=O)O)(CC2)CO3)c1 [Example 92, 2-(2-(1-(3-(4-fluorophenoxy)-5-methoxyphenyl)-2-oxabicyclo[2.2.2]octan-4-yl)ethoxy)acetic acid] |
| 520 | COc1cc(Oc2ccc(C)c(F)c2)cc(C23CCC(CCOCC(=O)O)(CC2)CO3)c1 [Example 93, 2-(2-(1-(3-(3-fluoro-4-methylphenoxy)-5-methoxyphenyl)-2-oxabicyclo[2.2.2]octan-4-yl)ethoxy)acetic acid] |
| 1160 | Cc1ccc(Oc2cc(F)cc(C34CCC(CCOCC(=O)NO)(CC3)CO4)c2)cc1F [Example 94, 2-(2-(1-(3-Fluoro-5-(3-fluoro-4-methylphenoxy)phenyl)-2-oxabicyclo[2.2.2]octan-4-yl)ethoxy)-N-hydroxyacetamide] |
| 350 | O=C(O)COCCC12CCC(c3cc(F)c(F)c(Oc4ccc(F)cc4)c3)(CC1)OC2 [Example 95, 2-(2-(1-(3,4-Difluoro-5-(4-fluorophenoxy)phenyl)-2-oxabicyclo[2.2.2]octan-4-yl)ethoxy) acetic acid] |
| 1150 | O=C(O)COCCC12CCC(c3cccc(Oc4ccc(F)c(F)c4)n3)(CC1)OC2 [Example 116, 2-(2-(1-(6-(3,4-Difluorophenoxy)pyridin-2-yl)-2-oxabicyclo[2.2.2]octan-4-yl)ethoxy) acetic acid] |
